Consider seven compounds from ChEMBL document CHEMBL2375333, “Triterpenes from the aerial parts of Cimicifuga yunnanensis and their antiproliferative effects on p53(N236S) mouse embryonic fibroblasts” (J Nat Prod, 2013).

Experiment [1] has as its system MEF. Nature of the experiment: Cytotoxicity against p53-/- mouse MEF cells harboring H-RasV12 after 48 hrs by MTT assay. It is filed as functional, cell-based. For orientation: Tetrazolium dyes change colour on reduction, which living cells bring about.
In experiment [2] the test system is MEF. Kind of experiment: Cytotoxicity against mouse wild type MEF cells after 48 hrs by MTT assay. It is filed as cell-based.
The test system of experiment [3] is MEF. Kind of experiment: Cytotoxicity against mouse MEF cells harboring H-RasV12 and p53 N236S mutant after 48 hrs by MTT assay. It is filed as functional, cell-based.

Regarding `C[C@@H]1C[C@H]2O[C@@]3(O[C@@H]2C(C)(C)O)[C@H]1[C@@]1(C)[C@H](O)C[C@@]24C[C@@]25CC[C@H](O)C(C)(C)[C@@H]5CC=C4[C@]1(C)[C@H]3O`, the IC50 (commonly the concentration that gives 50% inhibition) in experiment [1] turned out to be 9.8 µM. In the case of `CC(=O)O[C@@H]1C[C@@]23C[C@@]24CC[C@H](O)C(C)(C)[C@@H]4CC[C@H]3[C@]2(C)C[C@@H]3OC(=O)C[C@@H](C)[C@@H]3[C@@]12C`, the 50% inhibitory concentration (IC50) in experiment [1] was found to be 7.5 µM. In the case of `C[C@@H]1C[C@]2(OC[C@](C)(O)[C@H]2O)O[C@H]2C[C@@]3(C)C4=CC[C@H]5C(C)(C)[C@@H](O)CC[C@]5(C)C4=CC[C@]3(C)[C@@H]12`, the IC50 in experiment [2] is 6 µM; in experiment [3], 8.6 µM. As for `C[C@@H]1C[C@]2(OC[C@](C)(O)[C@H]2O)O[C@H]2C[C@@]3(C)C4=C(C[C@@H](O)[C@]3(C)[C@@H]12)[C@@]1(C)CC[C@H](O)C(C)(C)[C@@H]1CC4`, the IC50 in experiment [2] turned out to be 14.5 µM; in experiment [3] it was 5.5 µM.

`C[C@@H]1C[C@H]2O[C@]3(O[C@@H]2C(C)(C)O)[C@H]1[C@@]1(C)CCC2=C(CC[C@H]4C(C)(C)[C@@H]5CC[C@@]4(C2)O5)[C@]1(C)[C@H]3O` [ACERINOL] returned an IC50 in experiment [1] of 10.2 µM.

Compound `C[C@@H]1C[C@@]2(O[C@H]3C[C@@]4(C)[C@@H]5CC[C@H]6C(C)(C)[C@@H](O)CC[C@@]67C[C@@]57C[C@@H](O)[C@]4(C)[C@@H]13)O[C@H](O)[C@]1(C)O[C@H]21` [ACTEOL] registered an IC50 in experiment [1] of 7.4 µM. On the same count and under the same terms, the figure for `C=C(C)[C@@H]1O[C@]23O[C@@H]1C[C@@H](C)[C@@H]2[C@@]1(C)CC[C@@]24C[C@@]25CC[C@H](O)C(C)(C)[C@@H]5CC[C@H]4[C@]1(C)[C@H]3O` is 6.2 µM.
